Results published in ChEMBL document CHEMBL4715686, “Differently fluorescence-labelled dibenzodiazepinone-type muscarinic acetylcholine receptor ligands with high M2R affinity” (RSC Med Chem, 2020).

Assays:
[1] = molecular target: T1, Muscarinic acetylcholine receptor M2 (Homo sapiens, UniProt P08172); test: Displacement of [3H]-NMS from muscarinic M2 receptor (unknown origin) expressed in A9 cells by scintillation counting analysis; format: cell-based
[2] = molecular target: T2, Muscarinic acetylcholine receptor M4 (Homo sapiens, UniProt P08173); test: Displacement of [3H]-NMS from muscarinic M4 receptor (unknown origin) expressed in NG108-15 cells by scintillation counting analysis; format: cell-based
T2 sequence (P08173 whole entry): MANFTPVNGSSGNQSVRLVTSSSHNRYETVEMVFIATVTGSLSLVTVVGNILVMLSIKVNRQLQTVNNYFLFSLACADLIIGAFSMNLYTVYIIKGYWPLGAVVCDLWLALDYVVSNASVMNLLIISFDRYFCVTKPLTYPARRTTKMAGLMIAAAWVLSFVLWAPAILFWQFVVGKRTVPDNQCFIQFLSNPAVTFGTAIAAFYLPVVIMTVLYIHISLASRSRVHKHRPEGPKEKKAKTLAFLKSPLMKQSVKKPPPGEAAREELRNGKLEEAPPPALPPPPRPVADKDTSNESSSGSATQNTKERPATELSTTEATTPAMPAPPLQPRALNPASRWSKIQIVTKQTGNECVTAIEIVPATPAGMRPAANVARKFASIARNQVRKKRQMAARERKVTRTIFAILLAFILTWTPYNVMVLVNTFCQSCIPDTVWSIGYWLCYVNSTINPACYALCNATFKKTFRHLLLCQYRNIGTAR

[3] = molecular target: T1, Muscarinic acetylcholine receptor M2; test: Displacement of [3H]NMS from human recombinant muscarinic receptor M2 expressed in CHO-K9 cell membranes measured after 3 hrs by radioligand competition binding assay; set-up: species or system Membrane
[4] = molecular target: T3, Muscarinic acetylcholine receptor M1 (Homo sapiens, UniProt P11229); test: Displacement of [3H]NMS from human recombinant muscarinic receptor M1 expressed in CHO-K9 cell membranes measured after 3 hrs by radioligand competition binding assay; set-up: species or system Membrane
T3 sequence (P11229 whole entry): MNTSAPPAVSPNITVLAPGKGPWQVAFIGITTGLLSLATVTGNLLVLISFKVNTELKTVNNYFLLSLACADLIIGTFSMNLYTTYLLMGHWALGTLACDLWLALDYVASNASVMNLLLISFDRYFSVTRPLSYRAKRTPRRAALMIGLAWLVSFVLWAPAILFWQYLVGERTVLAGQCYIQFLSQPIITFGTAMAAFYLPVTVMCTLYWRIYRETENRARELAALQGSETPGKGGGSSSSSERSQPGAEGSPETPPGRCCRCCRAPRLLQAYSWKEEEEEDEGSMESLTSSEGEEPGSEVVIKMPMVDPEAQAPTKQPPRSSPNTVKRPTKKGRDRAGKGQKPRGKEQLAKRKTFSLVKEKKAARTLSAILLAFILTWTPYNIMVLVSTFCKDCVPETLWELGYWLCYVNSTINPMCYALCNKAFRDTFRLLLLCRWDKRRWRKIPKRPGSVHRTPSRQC

[5] = molecular target: T4, Muscarinic acetylcholine receptor M2 (Homo sapiens, UniProt P08172); test: Binding affinity to human muscarinic M2 receptor expressed in CHO-K9 cells assessed as unspecific binding at Kd incubated in dark at 22 degree C for 2 hrs in presence of atropine by FACSCantoII flow cytometric saturation binding study relative to control; format: cell-based
T4 sequence (P08172 whole entry): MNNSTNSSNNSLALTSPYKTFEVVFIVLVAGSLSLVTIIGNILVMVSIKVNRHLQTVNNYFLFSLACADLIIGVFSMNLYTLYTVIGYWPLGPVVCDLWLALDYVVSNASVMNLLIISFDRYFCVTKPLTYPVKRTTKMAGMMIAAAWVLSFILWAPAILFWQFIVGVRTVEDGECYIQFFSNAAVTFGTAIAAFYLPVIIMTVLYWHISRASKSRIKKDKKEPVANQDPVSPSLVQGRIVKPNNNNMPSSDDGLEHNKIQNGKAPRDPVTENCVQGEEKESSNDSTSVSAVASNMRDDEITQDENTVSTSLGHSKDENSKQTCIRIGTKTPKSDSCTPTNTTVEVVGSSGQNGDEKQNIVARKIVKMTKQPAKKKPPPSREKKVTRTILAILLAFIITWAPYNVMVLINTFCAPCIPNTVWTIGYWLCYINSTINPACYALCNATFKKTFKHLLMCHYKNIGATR

[6] = molecular target: Muscarinic acetylcholine receptor M3 (Homo sapiens, UniProt P20309); test: Displacement of [3H]NMS from human recombinant muscarinic receptor M3 expressed in CHO-K9 cell membranes measured after 3 hrs by radioligand competition binding assay; set-up: species or system Membrane
[7] = molecular target: T2, Muscarinic acetylcholine receptor M4; test: Displacement of [3H]NMS from human recombinant muscarinic receptor M4 expressed in CHO-K9 cell membranes measured after 3 hrs by radioligand competition binding assay; set-up: species or system Membrane
[8] = molecular target: T5, Muscarinic acetylcholine receptor M5 (Homo sapiens, UniProt P08912); test: Displacement of [3H]NMS from human recombinant muscarinic receptor M5 expressed in CHO-K9 cell membranes measured after 3 hrs by radioligand competition binding assay; set-up: species or system Membrane
T5 sequence (P08912 whole entry): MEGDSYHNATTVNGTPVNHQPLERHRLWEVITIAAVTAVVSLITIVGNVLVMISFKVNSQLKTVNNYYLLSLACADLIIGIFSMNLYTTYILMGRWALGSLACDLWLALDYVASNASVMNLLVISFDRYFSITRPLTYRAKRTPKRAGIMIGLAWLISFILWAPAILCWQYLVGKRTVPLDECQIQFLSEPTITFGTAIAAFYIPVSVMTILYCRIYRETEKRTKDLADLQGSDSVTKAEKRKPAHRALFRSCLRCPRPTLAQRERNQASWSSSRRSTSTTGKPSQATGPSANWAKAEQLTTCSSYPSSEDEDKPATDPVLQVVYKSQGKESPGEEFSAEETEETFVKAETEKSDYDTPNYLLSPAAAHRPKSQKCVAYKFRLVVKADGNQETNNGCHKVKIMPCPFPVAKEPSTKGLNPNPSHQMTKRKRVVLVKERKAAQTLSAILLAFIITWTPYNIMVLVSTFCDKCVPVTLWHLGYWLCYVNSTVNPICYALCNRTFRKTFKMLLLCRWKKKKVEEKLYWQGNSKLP

[9] = molecular target: T4, Muscarinic acetylcholine receptor M2; test: Binding affinity to human muscarinic M2 receptor expressed in CHO-K9 cells assessed as unspecific binding at Kd incubated in dark at 22 degree C for 2 hrs in presence of atropine by FACSCalibur flow cytometric saturation binding study relative to control; format: cell-based

Chain of Muscarinic acetylcholine receptor M3 (P20309 whole entry): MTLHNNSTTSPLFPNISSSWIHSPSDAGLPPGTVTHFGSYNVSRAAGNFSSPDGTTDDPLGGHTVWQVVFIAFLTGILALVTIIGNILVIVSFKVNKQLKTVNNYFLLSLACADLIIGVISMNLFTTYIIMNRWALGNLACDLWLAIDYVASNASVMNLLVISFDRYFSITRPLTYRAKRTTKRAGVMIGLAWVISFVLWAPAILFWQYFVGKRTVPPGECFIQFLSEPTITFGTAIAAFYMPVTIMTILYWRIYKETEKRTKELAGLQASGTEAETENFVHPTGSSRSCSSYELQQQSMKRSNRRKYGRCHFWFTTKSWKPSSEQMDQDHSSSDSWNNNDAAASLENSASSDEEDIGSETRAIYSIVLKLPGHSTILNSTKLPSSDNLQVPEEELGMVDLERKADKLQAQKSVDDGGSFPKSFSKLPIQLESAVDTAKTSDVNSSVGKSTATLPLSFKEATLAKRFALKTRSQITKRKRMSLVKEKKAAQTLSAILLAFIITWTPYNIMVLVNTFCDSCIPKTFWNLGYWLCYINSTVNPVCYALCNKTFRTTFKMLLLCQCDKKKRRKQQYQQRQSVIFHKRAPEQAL

| Compound | Ki [1] | Ki [2] | Ki [3] | Ki [4] | Kd ([5]; read-out: Kd) | Kd ([5]; read-out: pKd (converted)) | Ki [6] | Ki [7] | Ki [8] | Kd ([9]; read-out: Kd) | Kd ([9]; read-out: pKd (converted)) |
| --- | --- | --- | --- | --- | --- | --- | --- | --- | --- | --- | --- |
| CCN(CC)CCCCC1CCN(CC(=O)N2c3ccccc3NC(=O)c3ccccc32)CC1 | 0.316 nM | 2 nM |  |  |  |  |  |  |  |  |  |
| Cc1scc2c1N(C(=O)CN1CCN(CCCCCCCCCCNC(=O)Cc3ccc4c(c3)C(C)(C)C3=C5C=C6C7=[N+](CCC6OC5CCN34)c3ccc(S(=O)(=O)[O-])cc3C7(C)C)CC1)c1ccccc1NC2=O (stereo not given) |  |  | 0.0398 nM | 0.0316 nM |  |  |  |  |  |  |  |
| NCCN1CCN(CCCCC2CCN(CC(=O)N3c4ccccc4NC(=O)c4ccccc43)CC2)CC1 |  |  | 0.562 nM |  |  |  |  |  |  |  |  |
| Cc1cc(/C=C/C=C/c2ccc(N(C)C)cc2)cc(C)[n+]1CCN1CCN(CCCCC2CCN(CC(=O)N3c4ccccc4NC(=O)c4ccccc43)CC2)CC1 |  |  |  |  | 1.4 nM | 2.34 nM |  |  |  |  |  |
| O=C(CCCCCNC(=O)COc1ccc(/C=C/C2=[N+]3C(=Cc4ccc(-c5cccs5)n4[B-]3(F)F)C=C2)cc1)NCCNC(=O)CCc1cn(CCCCC2CCN(CC(=O)N3c4ccccc4NC(=O)c4ccccc43)CC2)cn1 |  |  | 0.692 nM | 1 nM | 4.5 nM | 3.89 nM | 37.2 nM | 0.417 nM | 10 nM |  |  |
| Cc1cc(/C=C/c2cc3c4c(c2)CCCN4CCC3)cc(C)[n+]1CCNC(=O)CCc1cn(CCCCC2CCN(CC(=O)N3c4ccccc4NC(=O)c4ccccc43)CC2)cn1 |  |  | 1.35 nM | 7.08 nM | 3.8 nM | 2 nM | 69.2 nM | 2.63 nM | 40.7 nM |  |  |
| Cc1cc(/C=C/c2cc3c4c(c2)CCCN4CCC3)cc(C)[n+]1CCN1CCN(CCCCC2CCN(CC(=O)N3c4ccccc4NC(=O)c4ccccc43)CC2)CC1 |  |  | 0.955 nM | 4.79 nM | 1.9 nM | 0.646 nM | 63.1 nM | 2.69 nM | 126 nM |  |  |
| Cc1cc(/C=C/C=C/c2ccc(N(C)C)cc2)cc(C)[n+]1CCNC(=O)CCc1cn(CCCCC2CCN(CC(=O)N3c4ccccc4NC(=O)c4ccccc43)CC2)cn1 |  |  | 0.912 nM | 4.9 nM | 2 nM |  | 85.1 nM | 4.27 nM | 70.8 nM |  |  |
| CN(C)c1ccc2c(-c3ccc(C(=O)NCCN4CCN(CCCCC5CCN(CC(=O)N6c7ccccc7NC(=O)c7ccccc76)CC5)CC4)cc3C(=O)[O-])c3ccc(=[N+](C)C)cc-3oc2c1 |  |  | 0.24 nM | 2.57 nM |  |  | 81.3 nM | 0.977 nM | 178 nM | 0.6 nM | 1.38 nM |
| CN(C)c1ccc2c(-c3ccc(C(=O)NCCNC(=O)CCc4cn(CCCCC5CCN(CC(=O)N6c7ccccc7NC(=O)c7ccccc76)CC5)cn4)cc3C(=O)[O-])c3ccc(=[N+](C)C)cc-3oc2c1 |  |  | 1.78 nM | 6.17 nM | 2.4 nM | 4.37 nM | 129 nM | 3.72 nM | 275 nM |  |  |
| Cc1scc2c1N(C(=O)CN1CCN(CCCCCCCCCCNC(=O)c3ccc(-c4c5ccc(=N)c(S(=O)(=O)O)c-5oc5c(S(=O)(=O)O)c(N)ccc45)c(C(=O)O)c3)CC1)c1ccccc1NC2=O |  |  | 1.58 nM | 0.501 nM |  |  |  |  |  |  |  |
